Source: publication PMC4657098, “A Review of the Updated Pharmacophore for the Alpha 5 GABA(A) Benzodiazepine Receptor Model” (International Journal of Medicinal Chemistry, 2015)
Where “and” joins values, the source holds several entries; their conditions need not be identical. Identical values can stand only once. Like-named read-outs stand apart in the source and are kept apart here.

How the values were obtained:
α4β3γ2 GABAA/BzR = molecular target: T1, α4β3γ2 GABAA/BzR (Homo sapiens, UniProt P18507+P48169); assay: biochemical; type: binding
T1 construct: expressed in transfected cells; host or cells: LTK cells (given for XLi-093 only)

α1β3γ2 GABAA/BzR = α1β3γ2 GABAA/BzR (Homo sapiens, UniProt P14867+P18507); assay: Competition binding to HEK cell membranes, α1β3γ2; design: expressed in transfected cells
α2β3γ2 GABAA/BzR = α2β3γ2 GABAA/BzR (Homo sapiens, UniProt P18507+P47869); assay: Competition binding to HEK cell membranes, α2β3γ2; design: expressed in transfected cells
α3β3γ2 GABAA/BzR = α3β3γ2 GABAA/BzR (Homo sapiens, UniProt P18507+P34903); assay: Competition binding to HEK cell membranes, α3β3γ2; design: expressed in transfected cells
α5β3γ2 GABAA/BzR = α5β3γ2 GABAA/BzR (Homo sapiens, UniProt P18507+P31644); assay: Competition binding to HEK cell membranes, α5β3γ2; design: expressed in transfected cells
α6β3γ2 GABAA/BzR = α6β3γ2 GABAA/BzR (Homo sapiens, UniProt P18507+Q16445); assay: Competition binding to HEK cell membranes, α6β3γ2; design: expressed in transfected cells

Structure (SMILES) | Ki (α4β3γ2 GABAA/BzR) | Ki (α1β3γ2 GABAA/BzR; Ki α1) | Ki (α2β3γ2 GABAA/BzR; Ki α2) | Ki (α3β3γ2 GABAA/BzR; Ki α3) | Ki (α5β3γ2 GABAA/BzR; Ki α5) | Ki (α6β3γ2 GABAA/BzR; Ki α6) | Ki (α4β3γ2 GABAA/BzR; read-out: Ki α4) | Ki (α1β3γ2 GABAA/BzR; read-out: Ki α1) | Ki (α2β3γ2 GABAA/BzR; read-out: Ki α2) | Ki (α3β3γ2 GABAA/BzR; read-out: Ki α3) | Ki (α5β3γ2 GABAA/BzR; read-out: Ki α5) | Ki (α6β3γ2 GABAA/BzR; read-out: Ki α6)
C#Cc1ccc2c(c1)C(c1ccccc1)=NCc1c(C(=O)OCCCOC(=O)c3ncn4c3CN=C(c3ccccc3)c3cc(C#C)ccc3-4)ncn1-2 [compound 63, 1,3-Bis(8-acetylenyl-6-phenyl-4H-benzo[f]imidazo[1,5-a][1,4]diazepine-3-carboxy) propyl diester] | 5000 nM | 236 nM | 7.4 nM | 272 nM | 194 nM | 5000 nM | – | – | – | – | – | –
CCOC(=O)c1cc2c(cn1)[nH]c1ccc(I)cc12 [CM-B01] | – | – | – | – | – | – | 1000 nM | 4.8 nM | 31 nM | 34 nM | 286 nM | 1000 nM
CCC(C)OC(=O)c1ncn2c1C1CCCN1C(=O)c1cc(F)ccc1-2 (stereo not drawn) [CM-B44] | – | – | – | – | – | – | 379 nM | 32 nM | 43 nM | 12 nM | 4.3 nM | 485 nM
CCC(OC(=O)c1ncn2c1C1CCCN1C(=O)c1cc(F)ccc1-2)C(F)(F)F (mixture of isomers) [CM-B47] | – | – | – | – | – | – | 2010 nM | 32 nM | 63 nM | 34 nM | 4.4 nM | 717 nM
COc1ccc2c(c1)C(=O)N1CCC[C@H]1c1c(C(=O)OCc3ccccc3)ncn1-2 [CM-E10] | – | – | – | – | – | – | 215 nM | 23 nM | 26 nM | 14 nM | 0.51 nM | 96 nM
CC(OC(=O)c1ncn2c1C1CCCN1C(=O)c1ccccc1-2)C(F)(F)F (stereo not drawn) [MMB-III-14] | – | – | – | – | – | – | 333 nM | 13 nM | 13 nM | 6.9 nM | 1.1 nM | 333 nM
COc1ccc2c(c1)C(=O)N1CCC1c1c(C(=O)OC(C)(C)C)ncn1-2 (stereo not drawn) [CM-D45 C19H21N3O4] | – | – | – | – | – | – | 0.15 nM | 90.5 nM | 65.5 nM | 30.3 nM | 1.65 nM | 0.23 nM
O=C(OC(C(F)(F)F)C(F)(F)F)c1ncn2c1C1CCCN1C(=O)c1ccccc1-2 (stereo not drawn) [MMB-III-18] | – | – | – | – | – | – | 3500 nM | – | 140 nM | 78 nM | 14 nM | –
COc1ccc2c(c1)C(=O)N1CCCC1c1c(C(=O)OC(C)C)ncn1-2 (stereo not drawn) [CM-E09b] | – | – | – | – | – | – | 55 nM | 20 nM | 22 nM | 19 nM | 0.45 nM | 69 nM
CC(C)OC(=O)c1ncn2c1[C@@H]1CCCN1C(=O)c1ccccc1-2 [MMB-III-016] | – | – | – | – | – | – | 1070 nM | 3 nM | 1.97 nM | 2 nM | 0.26 nM | 211 nM
C#Cc1ccc2c(c1)C(=O)N(C)Cc1c(C(=O)OCC)ncn1-2 [RY-080 C17H15N3O3] | 5.3 nM | 28.4 nM | 21.4 nM | 25.8 nM | 0.49 nM | 28.8 nM | – | – | – | – | – | –
CCC(OC(=O)c1ncn2c1C1CCCN1C(=O)c1cc(Br)ccc1-2)C(F)(F)F (mixture of isomers) [CM-B34] | – | – | – | – | – | – | 114 nM | 472 nM | 451 nM | 223 nM | 17 nM | 175 nM
CC[C@H](C)OC(=O)c1ncn2c1[C@@H]1CCCN1C(=O)c1cc(I)ccc1-2 [CM-B31i (ss)] | – | – | – | – | – | – | 18 nM | 90 nM | 184 nM | 78 nM | 4.9 nM | –
CC[C@H](C)OC(=O)c1ncn2c1[C@@H]1CCCN1C(=O)c1cc(F)ccc1-2 [CM-B44 (ss)] | – | – | – | – | – | – | 379 nM | 32 nM | 43 nM | 12 nM | 4.3 nM | 485 nM
CC(C)(C)CC(=O)c1cc2c(cn1)[nH]c1ccccc12 [CM-A77] | – | – | – | – | – | – | 1000 nM | 11.5 nM | 51.9 nM | 105 nM | 42.6 nM | 1000 nM
C#Cc1ccc2c(c1)C(c1ccccc1F)=NC(C)C(=O)N2C (stereo not drawn) [OMB-19] | – | – | – | – | – | – | 3330 nM | 22 nM | 4.6 nM | 20 nM | 3.5 nM | 40 nM
CCC(OC(=O)c1ncn2c1C1CCCN1C(=O)c1cc(Cl)ccc1-2)C(F)(F)F (mixture of isomers) [CM-B45] | – | – | – | – | – | – | 265 nM | 230 nM | 557 nM | 336 nM | 15 nM | 230 nM
CCOC(=O)c1ncn2c1C1CCN1C(=O)c1cc(OC)ccc1-2 (stereo not drawn) [CM-D44] | – | – | – | – | – | – | 0.33 nM | 34.3 nM | 56.3 nM | 20.7 nM | 0.57 nM | 0.92 nM
C#Cc1ccc2c(c1)C(c1ccccc1F)=NCC(=O)N2C [OMB-18] | – | – | – | – | – | – | 1730 nM | 3.9 nM | 1.2 nM | 3.4 nM | 0.8 nM | 5 nM
CCC(OC(=O)c1ncn2c1C1CCCN1C(=O)c1cc(Br)ccc1-2)C(F)(F)F (stereo not drawn) [MMB-II-87] | – | – | – | – | – | – | 109 nM | 200 nM | 333 nM | 107 nM | 5.4 nM | 333 nM
CN1Cc2c(C(=O)OC(C)(C)C)ncn2-c2ccc(C#C[Si](C)(C)C)cc2C1=O [RY-023 C22H27N3O3Si] | – | – | – | – | – | – | 7.8 nM | 197 nM | 143 nM | 255 nM | 2.61 nM | 58.6 nM
CC(C)(C)OC(=O)c1cc2c(cn1)[nH]c1ccc(I)cc12 [CM-A100] | – | – | – | – | – | – | 1000 nM | 14.5 nM | 44.9 nM | 124 nM | 65.3 nM | 1000 nM
COc1ccc2c(c1)C(=O)N1CCC[C@H]1c1c(C(=O)OCC(F)(F)F)ncn1-2 [CM-E09a] | – | – | – | – | – | – | 490 nM | 176 nM | 192 nM | 122 nM | 9.2 nM | 718 nM
O=C(OC(C(F)(F)F)C(F)(F)F)c1ncn2c1C1CCCN1C(=O)c1ccccc1-2 (stereo not drawn) [MMB-III-018] | – | – | – | – | – | – | 3500 nM | 117 nM | 140 nM | 78 nM | 14 nM | 976 nM
O=C(OCC(F)(F)F)c1cc2c(cn1)[nH]c1ccccc12 [MMB-II-74] | – | – | – | – | – | – | 500 nM | 3 nM | 24.5 nM | 41.7 nM | 126 nM | 1000 nM
COc1ccc2c(c1)C(=O)N1CC[C@H]1c1c(C(=O)OC(C)(C)C)ncn1-2 [CM-D45] | – | – | – | – | – | – | 0.15 nM | 90.5 nM | 65.5 nM | 30.3 nM | 1.65 nM | 0.23 nM
C#Cc1ccc2c(c1)C(=O)N(C)Cc1c(C(=O)OCCCCCOC(=O)c3ncn4c3CN(C)C(=O)c3cc(C#C)ccc3-4)ncn1-2 [compound 56, 1,5-Bis(8-acetyleno-5,6-dihydro-5-methyl-6-oxo-4H-imidazo[1,5a][1,4]benzodiazepine-3-carboxy) pentyl diester] | – | 231 nM | 661 nM | 2670 nM | 5.4 nM | 54.2 nM | – | – | – | – | – | –
O=c1c2c[nH]c3ccccc3c-2nn1-c1ccccc1 [QH-II-090] | – | – | – | – | – | – | – | 0.05 nM | 0.08 nM | 0.12 nM | 0.25 nM | 17 nM
Cc1nnc2n1-c1ccc(Cl)cc1C(c1ccccc1)=NC2 [alprazolam, reference compound] | – | 0.8 nM | 0.59 nM | 1.43 nM | 1.54 nM | 10000 nM and 1000 nM | – | – | – | – | – | –
